Laboratory results as given in patent publication US20110014308A1, “NOVEL COMPOSITIONS AND USE THEREOF FOR THE TREATMENT, CO-TREATMENT OR PREVENTION OF INFLAMMATORY DISORDERS” (priority 2007, published 2011).

What was measured:
Type in all cases: cell-based
MMP-1 = MMP-1 gene expression (mRNA, RT-PCR) in IL1beta-treated normal human chondrocytes; settings: catabolic gene, % of IL1beta-treated cells (set at 100%), HT 1.925 mg/L, CS 500 mg/L, or both
Method: (§1) Catabolic events are controlled by the expression of genes, e.g. those genes that encode matrix metalloproteinases (MMPs) that eventually break down collagen. Of the MMPs, MMP-1 and MMP-3 have a major role in the degradation of the ECM and thus in cartilage erosion. The effect of HT in combination with chondroitin was tested on the expression of human aggrecan or collagen I in normal human chondrocytes (derived from knee) (CC-2550; Cambrex, respectively). OH-tyrosol (HT) was from Cayman Chemicals or from DSM; chondroitin sulfate (from shark) was purchased from Sigma. A control experiment without the compounds was done concomitantly to compare the expression of these genes. Normal human chondrocytes were cultured for 4 hours or 4 days with HT (at 12.5 micromol/L), chondroitin (at 500 mg/L) as well as with both. The level of mRNA was determined by RT-PCR (Richard et al. Mol. Nutr. Food Res. 49, 431-442, 2005) and expressed relative to the level observed in cells cultured without the substances. The given values indicate the level of gene expression (in % of unstimulated cells [set at 100%] for anabolic and anti-catabolic genes; in % of IL1beta-treated cells [set at 100%], for catabolic genes). […]

MMP-13 = MMP-13 gene expression (mRNA, RT-PCR) in IL1beta-treated normal human chondrocytes; settings: catabolic gene, % of IL1beta-treated cells (set at 100%), HT 1.925 mg/L, CS 500 mg/L, or both
Method: as §1

IL-1beta = IL-1beta gene expression (mRNA, RT-PCR) in IL1beta-treated normal human chondrocytes; settings: catabolic gene, % of IL1beta-treated cells (set at 100%), HT 1.925 mg/L, CS 500 mg/L, or both
Method: The effect of HT in combination with chondroitin was tested on the expression of human aggrecan or collagen I in normal human chondrocytes (derived from knee) (CC-2550; Cambrex, respectively). OH-tyrosol (HT) was from Cayman Chemicals or from DSM; chondroitin sulfate (from shark) was purchased from Sigma. A control experiment without the compounds was done concomitantly to compare the expression of these genes. Normal human chondrocytes were cultured for 4 hours or 4 days with HT (at 12.5 micromol/L), chondroitin (at 500 mg/L) as well as with both. The level of mRNA was determined by RT-PCR (Richard et al. Mol. Nutr. Food Res. 49, 431-442, 2005) and expressed relative to the level observed in cells cultured without the substances. The given values indicate the level of gene expression (in % of unstimulated cells [set at 100%] for anabolic and anti-catabolic genes; in % of IL1beta-treated cells [set at 100%], for catabolic genes). The combination of HT was used at 12.5 micromol/L (=1.925 mg/L), while the chondroitin sulfate (CS) was tested at 500 mg/L. The results shown in Table 1 indicate that a HT altered the expression of anabolic genes such as aggrecan or collagen. Similar effects were elicited by chondroitin. Yet, when combined the observed increase in gene expression exceeded the expected value reflecting a synergistic interaction.

MMP-2 = MMP-2 gene expression (mRNA, RT-PCR) in IL1beta-treated normal human chondrocytes; settings: catabolic gene, % of IL1beta-treated cells (set at 100%), HT 1.925 mg/L, CS 500 mg/L, or both
Method: as §1

human collagen I = experiment: Collagen I gene expression (mRNA, RT-PCR) in normal human chondrocytes; settings: anabolic gene, % of unstimulated cells (set at 100%), HT 1.925 mg/L, CS 500 mg/L, or both
From the text: In articular cartilage, the balance between anabolic (build-up) and catabolic (break down) events needs to be maintained in order to prevent hypertrophy and excessive degradation of extracellular matrix (ECM), respectively. The ECM is built up of collagen and proteoglycans that are the products of collagen genes, for example human collagen I or aggrecan genes which are actived during anabolic events. A substance which increases expression of these genes or the respective proteins (i.e. collagen and aggrecan) favors cartilage regeneration and/or build-up. The effect of HT in combination with chondroitin was tested on the expression of human aggrecan or collagen I in normal human chondrocytes (derived from knee) (CC-2550; Cambrex, respectively). OH-tyrosol (HT) was from Cayman Chemicals or from DSM; chondroitin sulfate (from shark) was purchased from Sigma. A control experiment without the compounds was done concomitantly to compare the expression of these genes. Normal human chondrocytes were cultured for 4 hours or 4 days with HT (at 12.5 micromol/L), chondroitin (at 500 mg/L) as well as with both. The level of mRNA was determined by RT-PCR (Richard et al. Mol. Nutr. Food Res. 49, 431-442, 2005) and expressed relative to the level observed in cells cultured without the substances. […]

human aggrecan = experiment: Aggrecan gene expression (mRNA, RT-PCR) in normal human chondrocytes; settings: anabolic gene, % of unstimulated cells (set at 100%), CS 500 mg/L, or both; for Aggrecan (unstim., 4 hrs) level of gene expression: HT 1.925 mg/L (12.5 micromol/L); for Aggrecan (unstim. 4 d) level of gene expression: HT 1.925 mg/L
From the text: In articular cartilage, the balance between anabolic (build-up) and catabolic (break down) events needs to be maintained in order to prevent hypertrophy and excessive degradation of extracellular matrix (ECM), respectively. The ECM is built up of collagen and proteoglycans that are the products of collagen genes, for example human collagen I or aggrecan genes which are actived during anabolic events. A substance which increases expression of these genes or the respective proteins (i.e. collagen and aggrecan) favors cartilage regeneration and/or build-up. The effect of HT in combination with chondroitin was tested on the expression of human aggrecan or collagen I in normal human chondrocytes (derived from knee) (CC-2550; Cambrex, respectively). OH-tyrosol (HT) was from Cayman Chemicals or from DSM; chondroitin sulfate (from shark) was purchased from Sigma. A control experiment without the compounds was done concomitantly to compare the expression of these genes. Normal human chondrocytes were cultured for 4 hours or 4 days with HT (at 12.5 micromol/L), chondroitin (at 500 mg/L) as well as with both. The level of mRNA was determined by RT-PCR (Richard et al. Mol. Nutr. Food Res. 49, 431-442, 2005) and expressed relative to the level observed in cells cultured without the substances. The given values indicate the level of gene expression (in % of unstimulated cells [set at 100%] for anabolic and anti-catabolic genes; in % of IL1beta-treated cells [set at 100%], for catabolic genes). The combination of HT was used at 12.5 micromol/L (=1.925 mg/L), while the chondroitin sulfate (CS) was tested at 500 mg/L. The results shown in Table 1 indicate that a HT altered the expression of anabolic genes such as aggrecan or collagen. Similar effects were elicited by chondroitin. Yet, when combined the observed increase in gene expression exceeded the expected value reflecting a synergistic interaction.

| Molecule | MMP-1 (stim., 4 d) level of gene expression (MMP-1) [%] | MMP-13 (stim., 4 hrs) level of gene expression (MMP-13) [%] | IL-1beta (stim., 4 hrs) level of gene expression (IL-1beta) [%] | MMP-2 (stim., 4 hrs) level of gene expression (MMP-2) [%] | Collagen 1 (unstim. 4 d) level of gene expression (human collagen I) [%] | Aggrecan (unstim., 4 hrs) level of gene expression (human aggrecan) [%] | Aggrecan (unstim. 4 d) level of gene expression (human aggrecan) [%] |
| --- | --- | --- | --- | --- | --- | --- | --- |
| chondroitin sulfate [CS] | 122 | 90 | 91 | 116 | 103 | 113 | 97 |
| OCCc1ccc(O)c(O)c1 [HT, 2-(3,4-dihydroxyphenyl)-ethanol] | 109 | 96 | 83 | 102 | 113 | 115 | 118 |
